Measured values taken from US20130252811A1, “NOVEL HERBICIDE” (priority 2009, published 2013).

Columns and labels:
[1] = tested on: Leptochloa chinensis (LEFCH); assay: Flooded Leptochloa chinensis, visual herbicidal damage (Biological Example 1, Test 125); assay type: in vivo; settings: 14 DAA
Method: (§1) Rice seeds, variety IR-64 (an indica type of rice), were sown in seed trays. After 7 days the resulting plants were transplanted as 3 groups of 2 plants, into pots containing a standard sandy loam soil saturated with water replicating swampy conditions. These were grown on for a further 9 days in a glasshouse bay (30/20° C. day/night; 18/6 hours light/dark; 75% humidity). Leptochloa chinensis (LEFCH) and Echinochloa crus-galli (ECHCG) were sown as 2 separate groups of approx 10-20 seeds into pots 13 days prior to application of the test substances, in the same glasshouse conditions as the rice. Therefore, each pot of weeds contained a group of LEFCH and a separate group of ECHCG. All pots of rice and all pots of weeds were flooded to 2-3 cm water depth the day prior to application of the test substances. Growth stages at time of application were as follows: Rice: from 2 leaves on the main stem up to tillering; ECHCG: from 2 leaves on the main stem up to tillering; LEFCH: 2-3 leaves.
(§2) Test solutions were prepared by mixing the appropriate aliquots of the test substances in deionised water to give the desired treatment concentration. Most of the test substances were used as formulated products. Specifically, compound A-4 was applied as the EC050 formulation disclosed in Formulation Example 1 herein (EC=emulsifiable concentrate). Compound A-7 was applied as the EC050 Formulation disclosed in Formulation Example 2 herein. Compound A-9 was applied as the EC050 Formulation disclosed in Formulation Example 3 herein. Pyroxasulfone (a comparator co-herbicide) was applied as the SC050 formulation disclosed in Reference Formulation Example 7 herein (SC=Suspension concentrate). Imazosulfuron (a comparator co-herbicide) was applied as a GR0.25 formulation (GR=granule).
(§3) The test substances which were pure active ingredient (e.g. propyrisulfuron & fenoxasulfone) (labelled as ‘Technical’ in the following results table), were prepared by dissolving in 10.56% Emulsogen EL™ (castor oil ethoxylate, CAS Registry number 61791-12-6), 42.22% N-methylpyrrolidone and 42.22% dipropylene glycol mono-ethyl ether to give a stock solution containing 5% of the test substance and 95% of (Emulsogen EL™, N-methylpyrrolidone and dipropylene glycol mono-ethyl ether).
(§4) Application of the test substances was made by pipetting the required amount of the test solution or the test formulation gently into the flood water of the appropriate pot.
(§5) The test plants were then grown on in the same glasshouse conditions, and watered twice daily keeping the flood water at a depth of 2-3 cm.
(§6) A visual assessment of the % herbicidal damage was made 7 & 14 days after application (DAA), and the results are presented herein as % visual herbicidal damage where 0=no damage to plants and 100=total kill.

[2] = tested on: Echinochloa crus-galli (ECHCG); assay: Flooded Echinochloa crus-galli, visual herbicidal damage (Biological Example 1, Test 125); assay type: in vivo; settings: 14 DAA
Method: as §1, §2, §3, §4, §5, §6

[3] = tested on: Rice IR-64; assay: Flooded transplanted rice, visual herbicidal damage (Biological Example 1, Test 125); assay type: in vivo, variety IR-64 (indica); settings: 14 DAA, co-herbicide alone 10 g/ha
Method: as §1
Test solutions were prepared by mixing the appropriate aliquots of the test substances in deionised water to give the desired treatment concentration. Most of the test substances were used as formulated products. Specifically, compound A-4 was applied as the EC050 formulation disclosed in Formulation Example 1 herein (EC=emulsifiable concentrate). […]

[4] = compound of formula (I) 60 g/ha, no co-herbicide, 0=no damage, 100=total kill
[5] = compound of formula (I) 90 g/ha, no co-herbicide
[6] = compound of formula (I) 120 g/ha, no co-herbicide

Structure (SMILES)	% damage to LEFCH [1, 4]	% damage to LEFCH [1, 5]	% damage to LEFCH [1, 6]	% damage to ECHCG [2, 4]	% damage to ECHCG [2, 5]	% damage to ECHCG [2, 6]	other results
CCc1ccc(-c2ccc(Cl)cc2Cl)cc1C1C(=O)C(C)(C)OC(C)(C)C1=O [compound A-7]	0%	5%	5%	35%	55%	65%	–
Cn1nc(C(F)(F)F)c(CS(=O)(=O)C2=NOC(C)(C)C2)c1OC(F)F [pyroxasulfone, reference compound]	–	–	–	–	–	–	% damage to LEFCH ([1]; co-herbicide alone 10 g/ha): 70%; % damage to Rice IR-64 [3]: 45%; % damage to ECHCG ([2]; co-herbicide alone 10 g/ha): 60%
CCOc1cc(Cl)c(CS(=O)(=O)C2=NOC(C)(C)C2)cc1Cl [fenoxasulfone, reference compound]	–	–	–	–	–	–	% damage to LEFCH ([1]; co-herbicide alone 200 g/ha): 70%; % damage to ECHCG ([2]; co-herbicide alone 200 g/ha): 65%
CCCc1ccc2nc(Cl)c(S(=O)(=O)NC(=O)Nc3nc(OC)cc(OC)n3)n2n1 [propyrisulfuron, reference compound]	–	–	–	–	–	–	% damage to LEFCH ([1]; co-herbicide alone 80 g/ha): 0%; % damage to ECHCG ([2]; co-herbicide alone 80 g/ha): 80%
CCc1ccc(-c2ccc(Cl)cc2Cl)cc1C1=C(OC(=O)OC)C(C)(C)OC(C)(C)C1=O [compound A-9]	80%	80%	90%	15%	40%	70%	herbicidal activity against LEFCH ([1]; compound alone (EC formulation) at 60, 90 or 120 g/ha): 80-90%
CCc1ccc(-c2ccc(Cl)cc2F)cc1C1C(=O)C(C)(C)OC(C)(C)C1=O [compound A-4]	0%	0%	20%	55%	85%	90%	–
COc1cc(OC)nc(NC(=O)NS(=O)(=O)c2c(Cl)nc3ccccn23)n1 [imazosulfuron, reference compound]	–	–	–	–	–	–	% damage to LEFCH ([1]; co-herbicide alone 80 g/ha): 0%; % damage to ECHCG ([2]; co-herbicide alone 80 g/ha): 50%
